This passage reports IC50 results from US11873291B2, “Quinoline cGAS antagonist compounds” (ImmuneSensor Therapeutics, Inc., priority 2020, dated 2024).

The target of this experiment is T1, recombinant human cGAS (aa147-522) (Homo sapiens, UniProt Q8N884).
T1 construct: recombinant human cGAS (aa147-522); His6-SUMO (cleaved yes); made in house; host or cells: E. coli BL21/pLys
Kind of experiment: In vitro inhibition assay of cGAS activity (ATP consumption, KinaseGlo Max). It is filed as biochemical. The following applies: Table 2, read-out: cGAS Inhibition Results IC50. The protocol:
Expression and Purification of Recombinant cGAS Protein: cDNA encoding full-length or amino acids […] of human cGAS was inserted into a modified pET28a vector containing an in-frame His6-SUMO tag. The E. coli strain BL21/pLys harboring the plasmid was induced with 0.5 mM IPTG at 18° C. overnight. His6-SUMO tag was removed by a SUMO protease digestion following purification of the His6-SUMO-cGAS as described previously (Sun et al, 2013, Science 339, 786).
In vitro inhibition assay of cGAS activity: A 60 μL mixture containing 20 mM Tris-Cl, pH 7.5, 5 mM MgCl2, 0.2 mg/mL BSA, 0.01 mg/mL Herring testis DNA, 6.6 μM ATP, 0.1 mM GTP, 1.5 μg/mL of recombinant human cGAS (aa147-522) and serial dilutions of a test compound in DMSO was added to a 96-well plate and incubated at 37° C. for 20 minutes. At the end of reaction, 40 μL of KinaseGlo Max (Promega) was added and chemiluminescence was measured with a luminometer. Inhibitory effect of a compound is evaluated by plotting percentage of ATP consumption against logarithm of compound concentrations. IC50 value was calculated using GraphPad Prism 8 (GraphPad Software, Inc.).
The letter codes for cGAS IC50 include: A (<2 μM); B (2-30 μM); C (>30 μM).
For orientation: In Kinase-Glo more light means more ATP remaining.

T1 sequence (Q8N884 147-522): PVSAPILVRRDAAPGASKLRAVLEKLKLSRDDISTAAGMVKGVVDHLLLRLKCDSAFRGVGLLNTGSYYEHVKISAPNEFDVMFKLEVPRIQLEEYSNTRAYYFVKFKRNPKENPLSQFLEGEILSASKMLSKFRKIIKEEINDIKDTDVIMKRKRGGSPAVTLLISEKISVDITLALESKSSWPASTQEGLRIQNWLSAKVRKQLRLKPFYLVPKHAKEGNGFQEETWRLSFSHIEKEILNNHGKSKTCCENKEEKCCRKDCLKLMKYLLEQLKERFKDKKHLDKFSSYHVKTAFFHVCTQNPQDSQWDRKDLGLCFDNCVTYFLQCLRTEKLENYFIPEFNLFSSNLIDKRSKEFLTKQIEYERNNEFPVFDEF

A word on the IC50: it is the concentration that gives 50% inhibition. `O=C(O)C1(O)CCCN(c2cc(-n3ccnc3)c3ccc(Cl)c(Cl)c3n2)C1` (centres unmarked) [I-124]: the IC50 was under 2000 nM.

For `O=C(CO)NC1(C(=O)O)CCCN(c2cc(-n3ccnc3)c3ccc(Cl)c(Cl)c3n2)C1` (centres unmarked) [I-125, 1-(7,8-dichloro-4-(1H-imidazol-1-yl)quinolin-2-yl)-3-(2-hydroxyacetamido) piperidine-3-carboxylic acid], the IC50 was under 2000 nM.

Consider `COC(=O)C1CCCN(c2cc(-n3ccnc3)c3ccc(Cl)cc3n2)C1` (centres unmarked) [I-126], for which the IC50 fell in the range of 2000 to 30000 nM.

For the compound `O=C(O)C1CCN(c2cc(-n3ccnc3)c3ccc(Cl)cc3n2)CC1` [I-127], the IC50 was 2000 to 30000 nM.

For `O=C(O)[C@@H]1CCCCN1c1cc(-c2cn[nH]c2)c2ccc(Cl)c(Cl)c2n1` [I-128], the IC50 was 2000 to 30000 nM.

Regarding `O=C(O)[C@@H]1CN(c2cc(-n3ccnc3)c3ccc(Cl)cc3n2)CC[C@H]1O` [I-130], the half-inhibitory concentration (IC50) was 2000 to 30000 nM.

In the case of `COC(=O)C1CCN(c2cc(-n3ccnc3)c3ccc(Cl)cc3n2)CC1` [I-131], the half-inhibitory concentration (IC50) fell in the range of 2000 to 30000 nM.

On to `OC1CCN(c2cc(-n3ccnc3)c3ccc(Cl)c(Cl)c3n2)CC1` [I-132], for which the IC50 fell in the range of 2000 to 30000 nM.

In the case of `O[C@H]1CCCN(c2cc(-n3ccnc3)c3ccc(Cl)c(Cl)c3n2)C1` [I-133], the IC50 was under 2000 nM.

In the case of `O[C@@H]1CCCN(c2cc(-n3ccnc3)c3ccc(Cl)c(Cl)c3n2)C1` [I-134], the IC50 fell in the range of 2000 to 30000 nM.

In the case of `O=C(O)C1CC(O)CN(c2cc(-n3ccnc3)c3ccc(Cl)cc3n2)C1` (centres unmarked) [I-135], the IC50 was over 30000 nM.

For the compound `O=C(O)[C@@H]1CN(c2cc(-n3ccnc3)c3ccc(Cl)cc3n2)CC[C@@H]1O` [I-136], the IC50 was in the range of 2000 to 30000 nM.

Regarding `O=C(NO)[C@@H]1CCCN(c2cc(-n3ccnc3)c3ccc(Cl)cc3n2)C1` [I-137, (R)-1-(7-chloro-4-(1H-imidazol-1-yl)quinolin-2-yl)-N-hydroxypiperidine-3-carboxamide], the IC50 was 2000 to 30000 nM.

For the compound `OC[C@@H]1CCCN1c1cc(-c2cn[nH]c2)c2ccc(Cl)c(Cl)c2n1` [I-138], the IC50 was under 2000 nM.

In the case of `OCC1CCCN(c2cc(-n3ccnc3)c3ccc(Cl)cc3n2)C1` (centres unmarked) [I-140], the IC50 was 2000 to 30000 nM.

For `OC[C@H]1CCCN1c1cc(-n2ccnc2)c2ccc(Cl)c(Cl)c2n1` [I-141], the IC50 is under 2000 nM.

`OC[C@@H]1C[C@@H](O)CN1c1cc(-n2ccnc2)c2ccc(Cl)c(Cl)c2n1` [I-142]: the IC50 is under 2000 nM.

On to `C[C@@]1(CO)CCCN1c1cc(-n2ccnc2)c2ccc(Cl)c(Cl)c2n1` [I-143], for which the IC50 was under 2000 nM.

`O[C@H]1CCN(c2cc(-n3ccnc3)c3ccc(Cl)c(Cl)c3n2)C1` [I-144]: the IC50 was under 2000 nM.

`O[C@@H]1CCN(c2cc(-n3ccnc3)c3ccc(Cl)c(Cl)c3n2)C1` [I-145]: the IC50 was under 2000 nM.

As for `COC[C@@H]1CCCN1c1cc(-n2ccnc2)c2ccc(Cl)c(Cl)c2n1` [I-147], the IC50 was under 2000 nM.

On to `NS(=O)(=O)CC1CCCN1c1cc(-n2ccnc2)c2ccc(Cl)c(Cl)c2n1` (centres unmarked) [I-148], for which the IC50 was under 2000 nM.

For `NS(=O)(=O)C1CCN(c2cc(-n3ccnc3)c3ccc(Cl)c(Cl)c3n2)C1` (centres unmarked) [I-150], the concentration for half-maximal inhibition (IC50) was under 2000 nM.

Consider `CS(=O)(=O)NC[C@@H]1CCCN1c1cc(-n2ccnc2)c2ccc(Cl)c(Cl)c2n1` [I-151], for which the IC50 is under 2000 nM.

`CC(C)(C)OC(=O)NC[C@@H]1CCCN1c1cc(-n2ccnc2)c2ccc(Cl)c(Cl)c2n1` [I-152]: the IC50 was 2000 to 30000 nM.

In the case of `NC[C@@H]1CCCN1c1cc(-n2ccnc2)c2ccc(Cl)c(Cl)c2n1` [I-153, (S)-(1-(7,8-dichloro-4-(1H-imidazol-1-yl)quinolin-2-yl)pyrrolidin-2-yl)methanamine], the IC50 was in the range of 2000 to 30000 nM.

For `O=C(CO)NC[C@@H]1CCCN1c1cc(-n2ccnc2)c2ccc(Cl)c(Cl)c2n1` [I-154, (S)—N-((1-(7,8-dichloro-4-(1H-imidazol-1-yl)quinolin-2-yl)pyrrolidin-2-yl)methyl)-2-hydroxyacetamide], the IC50 was under 2000 nM.

In the case of `Clc1ccc2c(-n3ccnc3)cc(N3CCC(c4nn[nH]n4)C3)nc2c1` (centres unmarked) [I-155], the IC50 was in the range of 2000 to 30000 nM.

Turning to `O=C(O)CNC(=O)C[C@@H]1CCCN1c1cc(-n2ccnc2)c2ccc(Cl)c(Cl)c2n1` [I-156, (S)-(2-(1-(7,8-dichloro-4-(1H-imidazol-1-yl)quinolin-2-yl)pyrrolidin-2-yl)acetyl)glycine], the IC50 is under 2000 nM.

Turning to `O=S(=O)(O)CNc1cc(-n2ccnc2)c2ccc(Cl)c(Cl)c2n1` [I-157], the IC50 lay in the range of 2000 to 30000 nM.

Consider `O=S(=O)(O)CCNc1cc(-n2ccnc2)c2ccc(Cl)c(Cl)c2n1` [I-158], for which the IC50 was under 2000 nM.

Turning to `CN(CCS(=O)(=O)O)c1cc(-n2ccnc2)c2ccc(Cl)c(Cl)c2n1` [I-159], the IC50 was under 2000 nM.

For the compound `O=S(=O)(O)CCCNc1cc(-n2ccnc2)c2ccc(Cl)c(Cl)c2n1` [I-160], the IC50 was under 2000 nM.

`CN(CCS(N)(=O)=O)c1ccc2ccc(Cl)c(Cl)c2n1` [I-161]: the IC50 was over 30000 nM.

With `O=S(=O)(O)CC(Cc1ccccc1)Nc1cc(-n2ccnc2)c2ccc(Cl)c(Cl)c2n1` (centres unmarked) [I-162, 2-((7,8-dichloro-4-(1H-imidazol-1-yl)quinolin-2-yl)amino)-3-phenylpropane-1-sulfonic acid], the 50% inhibitory concentration (IC50) is over 30000 nM.

In the case of `CC(C)[C@H](CS(=O)(=O)O)Nc1cc(-n2ccnc2)c2ccc(Cl)cc2n1` [I-163], the IC50 was over 30000 nM.

Turning to `O=S(=O)(O)CCN(Cc1ccccc1)c1cc(-n2ccnc2)c2ccc(Cl)c(Cl)c2n1` [I-164, 2-(benzyl(7,8-dichloro-4-(1H-imidazol-1-yl)quinolin-2-yl)amino)ethane-1-sulfonic acid], the IC50 is 2000 to 30000 nM.

As for `CC(C)N(CCS(=O)(=O)O)c1cc(-n2ccnc2)c2ccc(Cl)c(Cl)c2n1` [I-165], the IC50 is under 2000 nM.

For the compound `O=C(O)CNc1cc(-n2ccnc2)c2ccc(Cl)cc2n1` [I-166, (7-chloro-4-(1H-imidazol-1-yl)quinolin-2-yl)glycine], the IC50 is 2000 to 30000 nM.

For `CN(CC(=O)O)c1cc(-n2ccnc2)c2ccc(Cl)cc2n1` [I-167], the half-maximal inhibitory concentration (IC50) is under 2000 nM.

As for `O=C(O)[C@H](CO)Nc1cc(-n2ccnc2)c2ccc(Cl)c(Cl)c2n1` [I-168, (7,8-Dichloro-4-(1H-imidazol-1-yl)quinolin-2-yl)serine], the IC50 was under 2000 nM.

For the compound `O=C(O)C(Cc1ccc(O)cc1)Nc1cc(-n2ccnc2)c2ccc(Cl)c(Cl)c2n1` (centres unmarked) [I-169], the IC50 was under 2000 nM.

As for `CS(=O)(=O)CCC(Nc1cc(-n2ccnc2)c2ccc(Cl)c(Cl)c2n1)C(=O)O` (centres unmarked) [I-170, 2-((7,8-Dichloro-4-(1H-imidazol-1-yl)quinolin-2-yl)amino)-4-(methylsulfonyl)butanoic acid], the IC50 was under 2000 nM.

`O=C(O)CNc1cc(Cl)c2ccc(Cl)c(Cl)c2n1` [I-171]: the IC50 was over 30000 nM.

For the compound `O=C(O)CN(CCN1CCOCC1)c1cc(-n2ccnc2)c2ccc(Cl)c(Cl)c2n1` [I-172, N-(7,8-dichloro-4-(1H-imidazol-1-yl)quinoline-2-yl)-N-(2-morpholinoethyl)glycine], the IC50 was in the range of 2000 to 30000 nM.

Consider `O=C(O)CN(CCCO)c1cc(-n2ccnc2)c2ccc(Cl)c(Cl)c2n1` [I-173], for which the IC50 lay within 2000 to 30000 nM.

Consider `O=C(O)CN(CC(=O)O)c1cc(-n2ccnc2)c2ccc(Cl)c(Cl)c2n1` [I-174], for which the IC50 is under 2000 nM.

Regarding `O=C(O)CCN(CC(=O)O)c1cc(-n2ccnc2)c2ccc(Cl)c(Cl)c2n1` [I-175], the IC50 is under 2000 nM.

Take `O=C(O)CN(Cc1ccncc1)c1cc(-n2ccnc2)c2ccc(Cl)c(Cl)c2n1` [I-176]: the IC50 fell in the range of 2000 to 30000 nM.

On to `O=C(O)CNc1cc(-c2cn[nH]c2)c2ccc(Cl)c(Cl)c2n1` [I-177, (7,8-dichloro-4-(1H-pyrazol-4-yl)quinolin-2-yl)glycine], for which the IC50 lay in the range of 2000 to 30000 nM.

For the compound `CN(CC(N)=O)c1cc(-n2ccnc2)c2ccc(Cl)c(Cl)c2n1` [I-179], the IC50 lay within 2000 to 30000 nM.

For the compound `C[C@@H](Nc1cc(-c2cn[nH]c2)c2ccc(Cl)c(Cl)c2n1)C(=O)O` [I-180], the IC50 lay in the range of 2000 to 30000 nM.

With `C[C@H](Nc1cc(-c2cn[nH]c2)c2ccc(Cl)c(Cl)c2n1)C(=O)O` [I-181], the IC50 was over 30000 nM.

Take `O=C(O)CCNc1cc(-n2ccnc2)c2ccc(Cl)cc2n1` [I-182]: the IC50 lay in the range of 2000 to 30000 nM.

As for `CN(CCC(=O)O)c1cc(-n2ccnc2)c2ccc(Cl)c(Cl)c2n1` [I-183], the IC50 was under 2000 nM.

As to `CN(CCC(=O)O)c1cc(-c2cn[nH]c2)c2ccc(Cl)c(Cl)c2n1` [I-184], the IC50 is under 2000 nM.

As to `C[C@H](CC(=O)O)Nc1cc(-n2ccnc2)c2ccc(Cl)c(Cl)c2n1` [I-185], the IC50 was in the range of 2000 to 30000 nM.

As to `C[C@@H](CC(=O)O)Nc1cc(-n2ccnc2)c2ccc(Cl)c(Cl)c2n1` [I-186], the IC50 is under 2000 nM.

As to `CC(C)[C@@H](CC(=O)O)Nc1cc(-n2ccnc2)c2ccc(Cl)c(Cl)c2n1` [I-187], the IC50 lay within 2000 to 30000 nM.

For the compound `CC(C)[C@H](CC(=O)O)Nc1cc(-n2ccnc2)c2ccc(Cl)c(Cl)c2n1` [I-188], the IC50 fell in the range of 2000 to 30000 nM.

Consider `O=C(O)C[C@@H](Nc1cc(-n2ccnc2)c2ccc(Cl)c(Cl)c2n1)c1ccccc1` [I-189], for which the IC50 lay within 2000 to 30000 nM.

`NC(=O)CCNc1cc(-c2cn[nH]c2)c2ccc(Cl)c(Cl)c2n1` [I-190]: the half-inhibitory concentration (IC50) was under 2000 nM.
